Test results published in patent US7678538B2, “Disinfection of biological fluids using asymmetric cyanine dyes” (American National Red Cross, priority 2005, dated 2010).
Where “and” joins values, the source holds several entries; their conditions need not be identical. Equal entries are not always repeated.

Experiments:
Deinococcus radiodurans = experiment: Bacteria photoinactivation in RBC suspension, colony count; assay type: cell-based; conditions: 80 μM TO, 7.4 J/cm^2 cool white light, 20% hematocrit RBCs, 60 min incubation
BVDV = assay type: cell-based, Bovine viral diarrhea virus
enveloped viruses = assay type: cell-based
Staphylococcus aureus = experiment: Bacteria photoinactivation in RBC suspension, colony count; assay type: cell-based; conditions: 80 μM TO, 7.4 J/cm^2 cool white light, 20% hematocrit RBCs, 60 min incubation
intracellular HIV = experiment: HIV photoinactivation in RBC suspension, CCRF-CEM coculture and p24 ELISA; assay type: cell-based, HIV-1; conditions: 80 μM TO, 7.4 J/cm^2 cool white light, 20% hematocrit RBCs, 60 min incubation
Escherichia coli = experiment: Bacteria photoinactivation in RBC suspension, colony count; assay type: cell-based; conditions: 80 μM TO, 7.4 J/cm^2 cool white light, 20% hematocrit RBCs, 60 min incubation
bacteria = experiment: Bacteria photoinactivation, tested species overall; assay type: cell-based; conditions: 80 μM TO, 7.4 J/cm^2 cool white light
Procedure: (§1) Viruses or bacteria were added into approximately 50-60% hematocrit RBCs with subsequent addition of additive solution and TO to obtain 20% final hematocrit containing 80 μM of the dye. The final volume of the pathogen spike was equal to 10% for mammalian viruses and equal to 1% for bacteriophage and bacteria. RBC suspensions containing dye were incubated for 60 minutes and 2 ml aliquots were transferred to polystyrene culture dishes (50 mm bottom diameter) to produce a 1 mm blood film. For some bacterial experiments, RBC suspensions were incubated for different times prior to illumination. […] A fluence rate of 8.2 mW/cm^2 was measured by an optical power meter (model 371, United Detector Technology, Hawthorn, Calif.) equipped with a silicone diode detector and radiometric filter (400-1000 nm, model 115-9, United Detector Technology). […]
We prepared bacterial stocks by inoculating a single colony into 5 mL of Luria broth (LB) and incubating cultures overnight under aerobic conditions at 30 or 37° C., depending on the strain. […] Colonies were counted after 24-72 hours of incubation at 30 or 37° C., with time and incubation temperature depending on the strain. Colonies were counted from all plates that contained between 1 and 750 colonies per plate. […]

PRV = assay type: cell-based, Pseudorabies virus; conditions: 80 μM TO, 7.4 J/cm^2 cool white light, 20% hematocrit RBCs, 60 min incubation
VSV = assay type: cell-based; conditions: 80 μM TO, 7.4 J/cm^2 cool white light, 20% hematocrit RBCs, 60 min incubation
[1] = system: Staphylococcus epidermidis; experiment: Bacteria photoinactivation in RBC suspension, colony count; assay type: cell-based; conditions: 80 μM TO, 7.4 J/cm^2 cool white light, 20% hematocrit RBCs, 60 min incubation
Yersinia enterocolitica = experiment: as above; assay type: cell-based; conditions: 80 μM TO, 7.4 J/cm^2 cool white light, 20% hematocrit RBCs, 60 min incubation
Pseudomonas fluorescens = experiment: as above; assay type: cell-based; conditions: 80 μM TO, 7.4 J/cm^2 cool white light, 20% hematocrit RBCs, 60 min incubation
extracellular HIV = assay type: cell-based; conditions: 80 μM TO, 7.4 J/cm^2 cool white light, 20% hematocrit RBCs, 60 min incubation
Serratia liquefaciens = experiment: Bacteria photoinactivation in RBC suspension, colony count; assay type: cell-based; conditions: 80 μM TO, 7.4 J/cm^2 cool white light, 20% hematocrit RBCs, 60 min incubation
Serratia marcescens = experiment: as above; assay type: cell-based; conditions: 80 μM TO, 7.4 J/cm^2 cool white light, 20% hematocrit RBCs, 60 min incubation
bacteriophage φ6 = experiment: Bacteriophage photoinactivation in RBC suspension, plaque assay; assay type: cell-based; conditions: 80 μM TO, 7.4 J/cm^2 cool white light, 20% hematocrit RBCs, 60 min incubation
Procedure: Leukodepleted 20% hematocrit RBCs suspended in Erythrosol (RAS-2) were oxygenated, inoculated with test organisms, incubated with TO, and illuminated with 7.4 J/cm^2 of cool white light. Control and treated samples were analyzed by appropriate assay. Identically prepared, but uncontaminated samples were phototreated, concentrated to 45% hematocrit, and assayed for potassium leakage, hemolysis and ATP during storage.
as §1, with “bacteria.” for “bacteria. RBC suspensions containing dye were incubated for 60 minutes and 2 ml aliquots were transferred to polystyrene culture dishes (50 mm bottom diameter) to produce a 1 mm blood film. For some bacterial experiments, RBC suspensions were incubated for different times prior to illumination.”
All virus assays were individually tested for cytotoxicity and interference. […] Log10 reduction values were calculated by subtracting the log10 titer/mL of RBCs with viable virus after illumination, or the log10 limit of detection/mL of RBCs without viable virus after illumination, from the measured log10 titer/mL of unilluminated RBCs.

model viruses = conditions: dimethylmethylene blue phototreatment with quinacrine as competitive membrane binding inhibitor; cited from earlier work

SMILES: CN1/C(=C/c2cc[n+](C)c3ccccc23)Sc2ccccc21.Cc1ccc(S(=O)(=O)[O-])cc1 [TO, 1-methyl-4-[(3-methyl-2(3H)-benzothiazolylidene)methyl]quinoliniump-tosylate]
- Inactivation Log10, Deinococcus radiodurans (Deinococcus radiodurans): >6.8 (n = 3) log10
- Inactivation Log10, BVDV (BVDV): 6.2 log10 and 6.2±0.1 log10 and 6.2 ± 0.1 (n = 3) log10
- inactivation of tested enveloped viruses (enveloped viruses): 5.1-7.4 log10
- day 42 hemolysis in ADSOL additive solution (RBCs): 1.6±0.6%
- hemolysis levels during storage, TO versus TP phototreated RBCs (RBCs): similar
- hemolysis on day 42, TO maintained in the dark (RBCs): 0.31%
- Inactivation Log10, Staphylococcus aureus (Staphylococcus aureus): 2.4 log10 and 2.4 ± 0.7 (n = 4) log10
- Inactivation Log10, intracellular HIV (intracellular HIV): >6.3 (n = 3) log10
- Inactivation Log10, Escherichia coli (Escherichia coli): 5.3 log10 and 5.3 ± 2.0 (n = 4) log10
- inactivation of bacteria, another four (more resistant) species (bacteria): 2-3 log10
- inactivation of bacteria, four (sensitive) species (bacteria): 5-7 log10
- Inactivation Log10, PRV (PRV): 5.4 log10 and 5.4±0.7 log10 and 5.4 ± 0.7 (n = 4) log10
- Inactivation Log10, VSV (VSV): 7.1 log10 and 7.1±0.2 log10 and 7.1 ± 0.2 (n = 4) log10
- Inactivation Log10, Staphylococcus epidermidis [1]: >7.0 (n = 4) log10
- Inactivation Log10, Yersinia enterocolitica (Yersinia enterocolitica): 6.4 log10 and 6.4 ± 2.0 (n = 4) log10
- Inactivation Log10, Pseudomonas fluorescens (Pseudomonas fluorescens): 2.3 log10 and 2.3 ± 1.2 (n = 4) log10
- Inactivation Log10, extracellular HIV (extracellular HIV): >6.5 (n = 3) log10
- Inactivation Log10, Serratia liquefaciens (Serratia liquefaciens): 2.8 log10 and 2.8 ± 0.6 (n = 4) log10
- Inactivation Log10, Serratia marcescens (Serratia marcescens): 3.5 log10 and 3.5 ± 2.5 (n = 3) log10
- Inactivation Log10, bacteriophage φ6 (bacteriophage φ6): 6.7 log10 and 6.7±0.7 log10 and 6.7 ± 0.7 (n = 3) log10

SMILES: Cc1cc(=[N+](C)C)cc2sc3cc(N(C)C)cc(C)c3nc1-2.[Cl-] [dimethylmethylene blue]
- reduction of model viruses (model viruses): > 6 log10
